Reference: patent US8846699B2, “Quinazoline derivatives as a multiplex inhibitor and method for the preparation thereof” (Hanmi Pharm. Co., Ltd., priority 2005, dated 2014)

What was measured:
[1] = tested on: colon and rectal cancer cell line, SW-620; test: Inhibitory effect on growth of cancer cell line SW-620, SRB; type: cell-based; settings: not having overexpressed EGFR and EGFR2
Description: (§1) A skin cancer cell line, A431 (ATCC: CRL-1555), a breast cancer cell line, SK-Br3 (ATCC: HTB-30), and a colon and rectal cancer cell line, SW-620 (ATCC: CCL-227) were used to test the degrees of cancer cell growth inhibition using a culture medium, DEME (Dulbecco's Modified Eagle's Medium, JBI) including 4.5 g/l of glucose and 1.5 g/l of sodium bicarbonate and supplemented with 10% FBS (fetal bovine serum, JBI).
(§2) The cancer cell lines stored in a liquid nitrogen tank were each quickly thawed at 37° C., and centrifuged to remove the medium. The resulting cell pellet was mixed with a culture medium, incubated in a culture flask at 37° C. under 5% CO2 for 2 to 3 days, and the medium was removed. The remaining cells were washed with DPBS (Dulbecco's Phosphate Buffered Saline, JBI) and separated from the flask by using Trypsin-EDTA solution, and the separated cells were diluted with a culture medium to a concentration of 1.0×10^6 cells/ml in case of A431 and SW-620, and 2.0×10^6 cells/ml in case of SK-Br3. 100 μl of the diluted cell solution was added to each well of a 96-well plate, which was incubated at 37° C. under 5% CO2 for 1 day.
(§3) In case that the test compound was not soluble in DMSO, a small amount of 1% HCl was added thereto and treated in a 40° C. water bath for 30 mins until complete dissolution was attained. The test compound solution was diluted with a culture medium to a final concentration of 10 μM, and then diluted 10 times serially to 10^−4. The final concentration of DMSO was less than 1%, and the control compounds of Test Example 1 were used at a concentration of 0.0001 to 10 μM.
(§4) The medium was removed from each well of the 96-well microplate, 100 μl of a diluted test compound solution was added to each well holding cultured cells, and the microplate was incubated at 37° C. under 5% CO2 for 72 hours. After removing the medium from the plate, 50 μl of 10% trichloroacetic acid was added to each well, and the plate was kept at 37° C. for 1 hour to fix the cells to the bottom of the plate. 10% trichloroacetic acid was removed from each well, the plate was dried, 100 μl of an SRB (Sulforhodamine-B, Sigma) dye solution was added thereto, and reacted for 10 mins. The SRB dye solution was prepared by dissolving SRB in 1% acetic acid to a concentration of 0.4%. After removing the dye solution, the plate was washed with water, and dried. When the dye solution was not removed by water, 1% acetic acid was used.
(§5) 150 μl of 10 mM trisma base (Sigma) was added to each well, and the absorbance at 570 nm was determined with a microplate reader (Molecular device).

[2] = tested on: Human Umbilical Vein Endothelial Cell (HUVEC); test: Inhibitory effect on growth of human umbilical vein endothelial cell (HUVEC), MTS; type: cell-based; settings: 10 ng/ml VEGF, absorbance 490 nm
Experimental: HUVECs (Young Science, Inc) were suspended in a culture medium, EBM-2 (Endothelial Basic Media, Cambrex) supplemented with 2% bovine serum (Cambrex) and auxiliary additives for HUVEC culture (e.g., EGF, VEGF, FGF, etc., Cambrex), inoculated into a culture flask coated with 1% gelatin, and incubated in an incubator at 37° C. under 5% CO2 and 100% humidity.
100 μl of 5% bovine serum medium containing 10 ng/ml of vascular endothelial growth factor (VEGF) and auxiliary additives, while excluding other growth factors was added to each well of a 96-well plate. […] DMSO (Dimethylsulfoxide) was used to dissolve the test compounds, and the final concentration of DMSO was less than 1%.
100 μl of the diluted cell solution was added to each well of the 96-well plate, which was incubated in an incubator for 96 hours.
Then, 20 μl of MTS ([…], Promega) solution was added to each well of the plate, and the plate was incubated in an incubator for 4 hours to induce discoloration. After 4 hours, the pellets were dissolved by way of a thorough shaking, and the absorbance at 490 nm was determined.

[3] = tested on: skin cancer cell line, A431; test: Inhibitory effect on growth of cancer cell line A431, SRB; type: cell-based; settings: overexpressed EGFR1 (HER-1)
Description: as §1, §2, §3, §4, §5

[4] = tested on: breast cancer cell line, SK-Br3; test: Inhibitory effect on growth of cancer cell line SK-Br3, SRB; type: cell-based; settings: overexpressed EGFR2 (HER-2)
Description: as §1, §2, §3, §4, §5

[5] = target: VEGFR2 (KDR) (Homo sapiens (Human), UniProt P35968); test: VEGFR2 (KDR) enzyme assay, fluorescence polarization; type: biochemical; settings: 5 μM ATP, poly(Glu, Tyr) substrate
Experimental: VEGFR2 (KDR, Proquinase) enzyme assay (auto-phosphorylation assay) was carried out by using Tyrosine Kinase Assay Kit Green (Panvera). The entire assay was conducted in accordance with VEGFR PTK inhibitor cellular activity test S.O.P.
A typical kinase inhibition reaction requires a protein tyrosine kinase, a suitable buffer solution system, a peptide substrate and ATP. In the present VEGFR tyrosine kinase assay, a buffer solution system containing 20 mM HEPES (pH 7.4), 5 mM MgCl2 and 2 mM MnCl2; 50 μM Na3VO4; 200 ng/10 μl VEGFR (Proquinase); 5 μM ATP; and 10 ng/ml poly(Glu, Tyr) (4:1, Sigma) as a substrate were used.
The compounds of Test Example 1 were used as control compounds at a concentration of 0.0001 to 10 μM. After 10 min, 10 μl of poly(Glu, Tyr) as a substrate was added to each well, and 10 μl of ATP was added thereto to initiate kinase reaction. The plate was incubated at room temperature for 1 hour, and 10 μl of 100 mM EDTA was added to each well to terminate the kinase reaction.
The added EDTA was mixed for 5 min. Thereafter, 10 μl of 10× anti-phosphotyrosine antibody (Panvera), 10 μl of 10×PTK Green Tracer (Panvera) and 30 μl of FP dilution buffer (Panvera) were added thereto, and the plate was incubated in a dark room at room temperature for 30 min.

[6] = target: EGFR1 (HER-1) (Homo sapiens (Human), UniProt P00533); test: EGFR1 (HER-1) enzyme assay, fluorescence polarization; type: biochemical; settings: 100 μM ATP, poly(Glu, Tyr) substrate
Chain of EGFR1 (HER-1) (P00533 25-1210): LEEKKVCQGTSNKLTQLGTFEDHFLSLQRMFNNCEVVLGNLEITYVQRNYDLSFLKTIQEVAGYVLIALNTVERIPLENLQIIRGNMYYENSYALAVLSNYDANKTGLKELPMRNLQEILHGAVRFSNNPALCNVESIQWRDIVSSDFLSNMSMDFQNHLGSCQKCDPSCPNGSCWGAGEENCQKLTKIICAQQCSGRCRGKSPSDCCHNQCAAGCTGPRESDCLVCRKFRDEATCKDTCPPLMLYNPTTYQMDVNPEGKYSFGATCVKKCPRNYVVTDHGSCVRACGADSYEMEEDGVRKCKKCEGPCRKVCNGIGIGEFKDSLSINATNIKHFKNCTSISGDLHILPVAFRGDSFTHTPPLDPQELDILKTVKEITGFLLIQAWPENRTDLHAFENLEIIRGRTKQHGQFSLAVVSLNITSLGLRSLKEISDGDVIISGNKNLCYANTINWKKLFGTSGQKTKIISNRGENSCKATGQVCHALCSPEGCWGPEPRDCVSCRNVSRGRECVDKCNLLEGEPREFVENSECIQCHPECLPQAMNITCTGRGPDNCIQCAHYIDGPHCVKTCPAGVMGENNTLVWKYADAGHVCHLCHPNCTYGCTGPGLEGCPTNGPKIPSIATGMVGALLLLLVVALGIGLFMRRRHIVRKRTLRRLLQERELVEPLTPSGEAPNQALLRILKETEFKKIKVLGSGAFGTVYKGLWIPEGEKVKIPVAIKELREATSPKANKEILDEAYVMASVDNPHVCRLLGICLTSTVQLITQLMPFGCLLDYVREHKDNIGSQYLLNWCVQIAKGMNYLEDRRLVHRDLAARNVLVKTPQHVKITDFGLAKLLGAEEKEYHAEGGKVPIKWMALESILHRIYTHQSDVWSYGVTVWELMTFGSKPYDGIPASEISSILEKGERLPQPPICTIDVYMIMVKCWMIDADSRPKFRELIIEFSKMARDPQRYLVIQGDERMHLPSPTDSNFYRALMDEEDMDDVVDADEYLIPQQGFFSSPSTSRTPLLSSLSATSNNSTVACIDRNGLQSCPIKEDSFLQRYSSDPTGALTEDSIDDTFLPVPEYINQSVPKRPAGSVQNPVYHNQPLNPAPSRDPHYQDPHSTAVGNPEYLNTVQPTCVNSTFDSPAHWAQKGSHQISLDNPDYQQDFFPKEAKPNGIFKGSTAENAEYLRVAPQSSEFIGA

Chain of VEGFR2 (KDR) (P35968 20-1356): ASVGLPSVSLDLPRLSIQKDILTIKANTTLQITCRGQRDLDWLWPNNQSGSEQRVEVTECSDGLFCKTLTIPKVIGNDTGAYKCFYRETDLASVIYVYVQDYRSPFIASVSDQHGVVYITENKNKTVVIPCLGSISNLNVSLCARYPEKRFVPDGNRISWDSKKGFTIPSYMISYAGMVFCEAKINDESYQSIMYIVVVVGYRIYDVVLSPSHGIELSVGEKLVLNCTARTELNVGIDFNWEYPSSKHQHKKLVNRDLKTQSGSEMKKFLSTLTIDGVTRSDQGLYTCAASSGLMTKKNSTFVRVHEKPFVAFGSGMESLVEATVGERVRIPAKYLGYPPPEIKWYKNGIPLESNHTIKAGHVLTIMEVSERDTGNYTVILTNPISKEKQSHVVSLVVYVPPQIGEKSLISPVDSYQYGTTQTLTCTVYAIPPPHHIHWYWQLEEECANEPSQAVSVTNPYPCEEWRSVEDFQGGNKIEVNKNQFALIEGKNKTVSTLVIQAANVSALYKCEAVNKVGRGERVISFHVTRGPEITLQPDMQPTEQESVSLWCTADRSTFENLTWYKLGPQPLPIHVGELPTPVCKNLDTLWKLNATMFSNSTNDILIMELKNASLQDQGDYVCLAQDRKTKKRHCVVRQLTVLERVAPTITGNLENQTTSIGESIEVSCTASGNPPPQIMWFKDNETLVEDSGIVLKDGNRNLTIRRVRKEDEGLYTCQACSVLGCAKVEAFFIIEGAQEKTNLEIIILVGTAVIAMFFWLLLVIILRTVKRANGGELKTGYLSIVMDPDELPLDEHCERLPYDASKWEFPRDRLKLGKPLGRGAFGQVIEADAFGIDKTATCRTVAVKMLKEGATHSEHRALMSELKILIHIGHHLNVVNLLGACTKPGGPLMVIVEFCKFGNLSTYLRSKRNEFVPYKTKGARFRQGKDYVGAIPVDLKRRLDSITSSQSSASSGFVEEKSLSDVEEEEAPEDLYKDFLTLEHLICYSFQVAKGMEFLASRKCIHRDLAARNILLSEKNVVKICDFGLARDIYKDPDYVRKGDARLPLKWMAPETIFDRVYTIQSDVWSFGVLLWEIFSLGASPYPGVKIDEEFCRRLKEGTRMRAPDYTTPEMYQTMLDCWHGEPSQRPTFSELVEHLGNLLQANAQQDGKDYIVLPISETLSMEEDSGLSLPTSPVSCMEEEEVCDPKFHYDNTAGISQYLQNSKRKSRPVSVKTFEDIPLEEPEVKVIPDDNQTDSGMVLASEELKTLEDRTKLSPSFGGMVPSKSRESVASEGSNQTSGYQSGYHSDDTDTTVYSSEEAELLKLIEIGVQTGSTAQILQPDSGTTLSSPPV

Row | SMILES | IC50 ([1]; Homo sapiens, 72 h) [nM] | IC50 ([3]; Homo sapiens, A-431, 72 h) [nM] | IC50 ([4]; Homo sapiens, SK-BR-3, 72 h) [nM] | IC50 [5] [nM] | IC50 [6] [nM] | IC50 ([2]; Homo sapiens, 96 h) [nM] | IC50 ([1]; 72 hours) [nM] | IC50 ([2]; 96 hours) [nM] | IC50 ([3]; 72 hours) [nM] | IC50 ([4]; 72 hours) [nM]
1 | Clc1ccc(Nc2nnc(Cc3ccncc3)c3ccccc23)cc1 [Control 1, PTK787, reference compound] | 10000 | 10000 | 10000 |  |  | 40 |  |  |  | 
2 | C=CC(=O)Nc1cc2c(Nc3cc(C(=O)NOC)c(Br)cc3F)ncnc2cc1OCCNC(C)=O [Example 131, 5-[7-(2-acetylamino-ethoxy)-6-acryloylamino-quinazolin-4-ylamino]-2-bromo-4-fluoro-N-methoxy-benzamide] |  |  |  | 756 |  | 965 |  |  |  | 
3 | C=CC(=O)Nc1cc2c(Nc3ccc(Br)cc3F)ncnc2cc1OC1CCCN(C(C)=O)C1 (centres unmarked) [Example 89, N-[7-(1-acetyl-piperidin-3-yloxy)-4-(4-bromo-2-fluoro-phenylamino)-quinazolin-6-yl]-acrylamide] | 10000 | 368 | 965 |  | 128 | 10000 |  |  |  | 
4 | C=CC(=O)Nc1cc2c(Nc3ccc(Br)cc3F)ncnc2cc1OCC(NC(=O)CN(C)C)C(C)C (centres unmarked) [Example 156, N-{4-(4-bromo-2-fluoro-phenylamino)-7-[2-(2-dimethylamino-acetylamino)-3-methyl-buthoxy]-quinazolin-6-yl}-acrylamide] |  |  |  |  | 149 |  | 3270 | 10000 | 196 | 462
5 | COc1cc2c(Nc3ccc(Br)cc3F)ncnc2cc1OCC1CCN(C)CC1 [Control 2, ZD6474, reference compound] | 4500 | 28 | 2600 |  |  | 70 |  |  |  | 
6 | C=CC(=O)Nc1cc2c(Nc3ccc(Br)cc3F)ncnc2cc1OCCNC(=O)C1CCCN1C (centres unmarked) [Example 100, 1-methyl-pyrrolidine-2-carboxylic acid {2-[6-acryloylamino-4-(4-bromo-2-fluoro-phenylamino)-quinazolin-7-yloxy]-ethyl}-amide] |  |  |  |  | 24 |  | 10000 |  | 25 | 101
7 | C=CC(=O)N(C)c1cc2c(Nc3ccc(Br)cc3F)ncnc2cc1OCCNC(C)=O [Example 78, N-[7-(2-acetylamino-ethoxy)-4-(4-bromo-2-fluoro-phenylamino)-quinazolin-6-yl]-N-methyl-acrylamide] |  | 396 | 1210 |  | 389 |  |  |  |  | 
8 | C=CC(=O)Nc1cc2c(Nc3ccc(Br)c(Cl)c3F)ncnc2cc1OC[C@H](C)NC(=O)CN(C)C [Example 158, (S)—N-4-(4-bromo-3-chloro-2-fluoro-phenylamino)-7-[2-(2-dimethylamino-acetylamino)-propoxy]-quinazolin-6-yl-acrylamide] |  |  |  |  | 23.1 |  | 5150 | 10000 | 259 | 381
9 | C=CC(=O)Nc1cc2c(Nc3ccc(Br)cc3C(F)(F)F)ncnc2cc1OCCNC(C)=O [Example 114, N-[7-(2-acetylamino-ethoxy)-4-(4-bromo-2-trifluoromethyl-phenylamino)-quinazolin-6-yl]-acrylamide] |  | 468 | 897 |  | 456 |  |  |  |  | 
10 | C=CC(=O)Nc1cc2c(Nc3ccc(Br)c(Cl)c3)ncnc2cc1OCCNC(=O)CN(C)C [Example 152] |  |  |  |  | 75 |  | 10000 | 10000 | 99 | 647
11 | C=C(C)C(=O)Nc1cc2c(Nc3ccc(Br)cc3F)ncnc2cc1OCCNC(C)=O [Example 76, N-[7-(2-acetylamino-ethoxy)-4-(4-bromo-2-fluoro-phenylamino)-quinazolin-6-yl]-2-methyl-acrylamide] |  | 2880 | 6340 |  | 1020 |  |  |  |  | 

Further molecules by falling IC50 ([4]; Homo sapiens, SK-BR-3, 72 h), results first:

Row | IC50 ([1]; Homo sapiens, 72 h) [nM] | IC50 ([3]; Homo sapiens, A-431, 72 h) [nM] | IC50 ([4]; Homo sapiens, SK-BR-3, 72 h) [nM] | IC50 [5] [nM] | IC50 [6] [nM] | SMILES | IC50 ([2]; Homo sapiens, 96 h) [nM] | IC50 ([1]; 72 hours) [nM] | IC50 ([2]; 96 hours) [nM] | IC50 ([3]; 72 hours) [nM] | IC50 ([4]; 72 hours) [nM]
12 | 723 | 99 | 297 |  | 94 | C=CC(=O)Nc1cc2c(Nc3ccc(Br)cc3F)ncnc2cc1OC1CCN(C(C)=O)C1 (centres unmarked) [Example 88, N-[7-(1-acetyl-pyrrolidin-3-yloxy)-4-(4-bromo-2-fluoro-phenylamino)-quinazolin-6-yl]-acrylamide] | 10000 |  |  |  | 
13 | 9130 | 248 | 240 |  | 222 | C=CC(=O)Nc1cc2c(Nc3ccc(Br)cc3F)ncnc2cc1OCC(C)(C)NC(=O)CN(C)C [Example 154, N-{4-(4-bromo-2-fluoro-phenylamino)-7-[2-(2-dimethylamino-acetylamino)-2-methyl-propoxy]-quinazolin-6-yl}-acrylamide] |  |  |  |  | 
14 | 9570 |  | 179 |  | 69 | C=CC(=O)Nc1cc2c(Nc3ccc(Br)cc3F)ncnc2cc1OCCNC(=O)C1CCCN1C (centres unmarked) [Example 98, 1-methyl-pyrrolidine-2-carboxylic acid {2-[6-acryloylamino-4-(4-bromo-2-fluoro-phenylamino)-quinazolin-7-yloxy]-ethyl}-amide] |  |  |  | 78 | 
15 | 2700 | 47 | 36 |  | 42 | C=CC(=O)Nc1cc2c(Nc3cc(OC)c(Cl)cc3Cl)ncnc2cc1OCCNC(C)=O [Example 132, N-[7-(2-acetylamino-ethoxy)-4-(2,4-dichloro-5-methoxy-phenylamino)-quinazolin-6-yl]-acrylamide] |  |  |  |  | 
16 | 5650 | 30 | 27 |  | 14 | C=CC(=O)Nc1cc2c(Nc3cc(OC)c(Cl)cc3OC)ncnc2cc1OCCNC(=O)CN(C)C [Example 166, N-{4-(4-chloro-2,5-dimethoxy-phenylamino)-7-[2-(2-dimethylamino-acetylamino)-ethoxy]-quinazolin-6-yl}-acrylamide] |  |  |  |  | 
17 | 8530 | 9 | 26 |  | 12 | C=CC(=O)Nc1cc2c(Nc3ccc(F)c(Cl)c3)ncnc2cc1OCCNC(C)=O [Example 111, N-[7-(2-acetylamino-ethoxy)-4-(3-chloro-4-fluoro-phenylamino)-quinazolin-6-yl]-acrylamide] |  |  |  |  | 
